In assay [1] the target is T1, PTPN2 (i.e., TC-PTP) (Homo sapiens, UniProt P17706).
T1 sequence (P17706 1-415): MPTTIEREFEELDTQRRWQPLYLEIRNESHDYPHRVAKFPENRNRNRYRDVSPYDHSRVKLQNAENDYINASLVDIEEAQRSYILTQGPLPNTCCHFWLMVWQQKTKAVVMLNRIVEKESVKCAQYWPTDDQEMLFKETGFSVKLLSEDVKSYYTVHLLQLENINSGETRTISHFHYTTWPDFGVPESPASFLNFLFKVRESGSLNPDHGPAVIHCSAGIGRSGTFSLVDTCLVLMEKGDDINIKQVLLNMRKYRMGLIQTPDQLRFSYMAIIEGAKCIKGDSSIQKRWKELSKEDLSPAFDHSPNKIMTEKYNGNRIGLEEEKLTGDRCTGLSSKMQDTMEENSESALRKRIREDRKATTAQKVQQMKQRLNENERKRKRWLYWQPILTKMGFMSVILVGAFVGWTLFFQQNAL
The assay is described as follows: Phosphatase activity assay (DiFMUP substrate), PTPN2. It is filed as biochemical. To be noted: compounds binned ≤1 uM or >1 uM. The method in brief:
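Continuous fluorogenic readout of DiFMUP dephosphorylation at room temperature, substrate set at Km for each phosphatase (about 45 μM in the PTPN2 assay). The buffer contains 1 mM DTT and 0.001% Tween-20, pH 7.5.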

The target in assay [2] is T2, PTPN1 (i.e., PTP1B) (Homo sapiens, UniProt P18031).
T2 sequence (P18031 1-435): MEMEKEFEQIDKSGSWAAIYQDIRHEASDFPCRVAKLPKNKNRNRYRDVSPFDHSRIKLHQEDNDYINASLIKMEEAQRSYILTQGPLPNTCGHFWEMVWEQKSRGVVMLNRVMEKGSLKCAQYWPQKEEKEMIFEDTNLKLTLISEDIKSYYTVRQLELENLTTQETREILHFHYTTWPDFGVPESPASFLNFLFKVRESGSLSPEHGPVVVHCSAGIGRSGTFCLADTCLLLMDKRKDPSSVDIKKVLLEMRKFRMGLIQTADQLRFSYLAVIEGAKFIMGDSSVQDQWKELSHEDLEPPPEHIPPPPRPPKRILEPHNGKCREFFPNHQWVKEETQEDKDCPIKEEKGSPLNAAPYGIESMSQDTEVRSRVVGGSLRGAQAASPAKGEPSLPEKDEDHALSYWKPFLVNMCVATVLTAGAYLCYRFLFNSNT
The assay is described as follows: Phosphatase activity assay (DiFMUP substrate), PTP1B. It counts as biochemical. To be noted: compounds binned ≤1 uM or >1 uM. In short, it runs like this: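 Enzyme (e.g. PTPN2 0.025 ng/ul) mixed about 2 min with compound at 10 serial concentrations in 50 mM HEPES pH 7.5, 150 mM NaCl, 0.5 mM EDTA, 1 mM DTT, 0.001% Tween-20 at room temperature. DiFMUP added at each enzyme's Km (about 45 μM for PTPN2). DiFMU fluorescence (ex 360/em 450 nm) followed 15-30 min; IC50 from 4-parameter fit of rates.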

The structures appear in SMILES notation.

As to `CC(C)n1cc(-c2ccc(O)c(N3CC(=O)NS3(=O)=O)c2F)c(F)n1` [Compound 467, 5-(2-fluoro-3-(3-fluoro-1-isopropyl-1H-pyrazol-4-yl)-6-hydroxyphenyl)-1,2,5-thiadiazolidin-3-one 1,1-dioxide], the IC50 in assay [1] and in assay [2] was ≤ 1 µM each time.
Regarding `Cn1nc(-c2ccc(O)c(N3CC(=O)NS3(=O)=O)c2F)cc1C1CCCN1` (stereo not drawn) [Compound 468, 5-(2-fluoro-6-hydroxy-3-(1-methyl-5-(pyrrolidin-2-yl)-1H-pyrazol-3-yl)phenyl)-1,2,5-thiadiazolidin-3-one 1,1-dioxide], the results for the IC50 in assay [1] and in assay [2] were > 1 µM and ≤ 1 µM, respectively.
For `O=C1CN(c2c(O)ccc(-c3cn(C4CCCCC4)nc3F)c2F)S(=O)(=O)N1` [Compound 469, 5-(3-(1-cyclohexyl-3-fluoro-1H-pyrazol-4-yl)-2-fluoro-6-hydroxyphenyl)-1,2,5-thiadiazolidin-3-one 1,1-dioxide], the half-maximal inhibitory concentration (IC50) in assay [1] and in assay [2] was ≤ 1 µM each time.
For the molecule `CC1CC=C(c2ccc(O)c(N3CC(=O)NS3(=O)=O)c2F)CN1` (stereo not drawn) [Compound 470, 5-(2-fluoro-6-hydroxy-3-(6-methyl-1,2,5,6-tetrahydropyridin-3-yl)phenyl)-1,2,5-thiadiazolidin-3-one 1,1-dioxide], the IC50 in assay [1] and in assay [2] was ≤ 1 µM in each case.
Take `C=CCCC1C=C(c2ccc(O)c(N3CC(=O)NS3(=O)=O)c2F)CN1` (stereo not drawn) [Compound 471, 5-(3-(5-(but-3-en-1-yl)-2,5-dihydro-1H-pyrrol-3-yl)-2-fluoro-6-hydroxyphenyl)-1,2,5-thiadiazolidin-3-one 1,1-dioxide]: the IC50 in assay [1] and in assay [2] was ≤ 1 µM in each case.
Consider `Cn1cc(-c2ccc(O)c(N3CC(=O)NS3(=O)=O)c2F)nc1C1CC1(F)F` (stereo not drawn) [Compound 472, 5-(3-(2-(2,2-difluorocyclopropyl)-1-methyl-1H-imidazol-4-yl)-2-fluoro-6-hydroxyphenyl)-1,2,5-thiadiazolidin-3-one 1,1-dioxide], for which the figures for the IC50 in assay [1] and in assay [2] were > 1 µM and ≤ 1 µM, respectively.
Consider `O=C1CN(c2c(O)ccc(C3=CC(CCc4ccccc4)NC3)c2F)S(=O)(=O)N1` (stereo not drawn) [Compound 473, 5-(2-fluoro-6-hydroxy-3-(5-phenethyl-2,5-dihydro-1H-pyrrol-3-yl)phenyl)-1,2,5-thiadiazolidin-3-one 1,1-dioxide], for which the IC50 in assay [1] and in assay [2] was ≤ 1 µM throughout.
With `N#CC1(n2cc(-c3ccc(O)c(N4CC(=O)NS4(=O)=O)c3F)c(F)n2)CC1` [Compound 474, 1-(4-(3-(1,1-dioxido-4-oxo-1,2,5-thiadiazolidin-2-yl)-2-fluoro-4-hydroxyphenyl)-3-fluoro-1H-pyrazol-1-yl)cyclopropane-1-carbonitrile], the concentration for half-maximal inhibition (IC50) in assay [1] and in assay [2] was ≤ 1 µM in each case.
For the molecule `O=C1CN(c2c(O)ccc(C3=CC4CCC3N4)c2F)S(=O)(=O)N1` (stereo not drawn) [Compound 475, 5-(3-(7-azabicyclo[2.2.1]hept-2-en-2-yl)-2-fluoro-6-hydroxyphenyl)-1,2,5-thiadiazolidin-3-one 1,1-dioxide], the figures for the IC50 in assay [1] and in assay [2] were > 1 µM and ≤ 1 µM, respectively.
Turning to `N#CNC(=N)N1CC=C(c2ccc(O)c(N3CC(=O)NS3(=O)=O)c2F)C1` [Compound 476, N-cyano-3-(3-(1,1-dioxido-4-oxo-1,2,5-thiadiazolidin-2-yl)-2-fluoro-4-hydroxyphenyl)-2,5-dihydro-1H-pyrrole-1-carboximidamide], the concentration for half-maximal inhibition (IC50) in assay [1] and in assay [2] was ≤ 1 µM throughout.
On to `O=C1CN(c2c(O)ccc(-c3cn[nH]c3)c2F)S(=O)(=O)N1` [Compound 477, 5-(2-fluoro-6-hydroxy-3-(1H-pyrazol-4-yl)phenyl)-1,2,5-thiadiazolidin-3-one 1,1-dioxide], for which the IC50 in assay [1] and in assay [2] was ≤ 1 µM in each case.
As to `N#CC1CC1c1cc(-c2ccc(O)c(N3CC(=O)NS3(=O)=O)c2F)[nH]n1` (stereo not drawn) [Compound 478, 2-(5-(3-(1,1-dioxido-4-oxo-1,2,5-thiadiazolidin-2-yl)-2-fluoro-4-hydroxyphenyl)-1H-pyrazol-3-yl)cyclopropane-1-carbonitrile], the half-maximal inhibitory concentration (IC50) in assay [1] and in assay [2] was ≤ 1 µM throughout.
For the molecule `Cn1nc(-c2ccc(O)c(N3CC(=O)NS3(=O)=O)c2F)cc1O` [Compound 479, 5-(2-fluoro-6-hydroxy-3-(5-hydroxy-1-methyl-1H-pyrazol-3-yl)phenyl)-1,2,5-thiadiazolidin-3-one 1,1-dioxide], the IC50 in assay [1] and in assay [2] was ≤ 1 µM in each case.
Take `O=C1CN(c2c(O)ccc(C3=CC(COC(F)F)NC3)c2F)S(=O)(=O)N1` (stereo not drawn) [Compound 480, 5-(3-(5-((difluoromethoxy)methyl)-2,5-dihydro-1H-pyrrol-3-yl)-2-fluoro-6-hydroxyphenyl)-1,2,5-thiadiazolidin-3-one 1,1-dioxide]: the IC50 in assay [1] and in assay [2] was ≤ 1 µM each time.
As to `COCC1C=C(c2ccc(O)c(N3CC(=O)NS3(=O)=O)c2F)CN1` (stereo not drawn) [Compound 481, 5-(2-fluoro-6-hydroxy-3-(5-(methoxymethyl)-2,5-dihydro-1H-pyrrol-3-yl)phenyl)-1,2,5-thiadiazolidin-3-one 1,1-dioxide], the concentration for half-maximal inhibition (IC50) in assay [1] and in assay [2] was ≤ 1 µM throughout.
Take `CC(C)C1C=C(c2ccc(O)c(N3CC(=O)NS3(=O)=O)c2F)CN1` (stereo not drawn) [Compound 482, 5-(2-fluoro-6-hydroxy-3-(5-isopropyl-2,5-dihydro-1H-pyrrol-3-yl)phenyl)-1,2,5-thiadiazolidin-3-one 1,1-dioxide]: the IC50 in assay [1] and in assay [2] was ≤ 1 µM in each case.
Consider `C[C@@H]1C=C(c2ccc(O)c(N3CC(=O)NS3(=O)=O)c2F)CN1` [Compound 483, (R)-5-(2-fluoro-6-hydroxy-3-(5-methyl-2,5-dihydro-1H-pyrrol-3-yl)phenyl)-1,2,5-thiadiazolidin-3-one 1,1-dioxide], for which the IC50 in assay [1] and in assay [2] was ≤ 1 µM in each case.
With `N#CC1(n2cc(-c3ccc(O)c(N4CC(=O)NS4(=O)=O)c3F)cn2)CC1` [Compound 484, 1-(4-(3-(1,1-dioxido-4-oxo-1,2,5-thiadiazolidin-2-yl)-2-fluoro-4-hydroxyphenyl)-1H-pyrazol-1-yl)cyclopropane-1-carbonitrile], the concentration for half-maximal inhibition (IC50) in assay [1] and in assay [2] was ≤ 1 µM each time.
`CCn1cc(-c2ccc(O)c(N3CC(=O)NS3(=O)=O)c2F)cn1` [Compound 486, 5-(3-(1-ethyl-1H-pyrazol-4-yl)-2-fluoro-6-hydroxyphenyl)-1,2,5-thiadiazolidin-3-one 1,1-dioxide]: the IC50 in assay [1] and in assay [2] was ≤ 1 µM each time.
For `O=C1CN(c2c(Cl)ccc(-c3cc(C4CC4)n[nH]3)c2F)S(=O)(=O)N1` [Compound 487, 5-(6-chloro-3-(3-cyclopropyl-1H-pyrazol-5-yl)-2-fluorophenyl)-1,2,5-thiadiazolidin-3-one 1,1-dioxide], the IC50 is > 1 µM in assay [1] and ≤ 1 µM in assay [2].
Turning to `O=C1CN(c2c(O)ccc(-c3cn(CC(F)F)nc3F)c2F)S(=O)(=O)N1` [Compound 488, 5-(3-(1-(2,2-difluoroethyl)-3-fluoro-1H-pyrazol-4-yl)-2-fluoro-6-hydroxyphenyl)-1,2,5-thiadiazolidin-3-one 1,1-dioxide], the IC50 in assay [1] and in assay [2] was ≤ 1 µM throughout.
Consider `O=C1CN(c2c(O)ccc(C3=CCNC3)c2F)S(=O)(=O)N1` [Compound 489, 5-(3-(2,5-dihydro-1H-pyrrol-3-yl)-2-fluoro-6-hydroxyphenyl)-1,2,5-thiadiazolidin-3-one 1,1-dioxide], for which the IC50 in assay [1] and in assay [2] was ≤ 1 µM throughout.
Consider `O=C1CN(c2c(O)ccc(-c3cc(C4CC4(F)F)no3)c2F)S(=O)(=O)N1` (stereo not drawn) [Compound 490, 5-(3-(3-(2,2-difluorocyclopropyl)isoxazol-5-yl)-2-fluoro-6-hydroxyphenyl)-1,2,5-thiadiazolidin-3-one 1,1-dioxide], for which the IC50 in assay [1] and in assay [2] was ≤ 1 µM throughout.
For `O=C1CN(c2c(O)ccc(-c3cc(C4CC4(F)F)nn3CC(F)F)c2F)S(=O)(=O)N1` (stereo not drawn) [Compound 491, 5-(3-(3-(2,2-difluorocyclopropyl)-1-(2,2-difluoroethyl)-1H-pyrazol-5-yl)-2-fluoro-6-hydroxyphenyl)-1,2,5-thiadiazolidin-3-one 1,1-dioxide], the IC50 in assay [1] and in assay [2] was ≤ 1 µM in each case.

(Values after patent US20240398828A1, “HETERO-ATOM CONTAINING COMPOUNDS AND USES THEREOF” (Kumquat Biosciences Inc., priority 2021, published 2024).)
